Source: US12145947B2, “Pyrimidine based modulators and uses thereof” (Quanta Therapeutics, Inc., priority 2022, dated 2024)

Columns and labels:
[1] = molecular target: T1, GST-tagged KRAS-G12D (2-169) (Homo sapiens, UniProt P01116, G12D); assay: Nucleotide exchange assay (NEA), SOS-mediated, HTRF, KRAS G12D; format: biochemical; conditions: Table 4; IC50 extracted at 30 min
T1 construct: GST-tagged KRAS-G12D (2-169, Reaction Biology, MSC-11-539); purchased Reaction Biology MSC-11-539 (KRAS G12D); MSC-11-502 (SOS1cat)
Text: This activity is tightly regulated by GTPase activating proteins (GAPs) and guanine nucleotide exchange factors (GEFs). GEFs, such as SOS1/2, activate Ras proteins by exchanging GDP for GTP, thus returning Ras to its active conformation (Simanshu, Nissley, & McCormick, 2017). […] Homogenous time resolved fluorescence (HTRF) was used to detect SOS-mediated binding of a fluorescent GTP analog, GTP-DY-647P1 (Jena Biosciences NU-820-647P1) to GST-tagged KRAS-G12D (2-169, Reaction Biology, MSC-11-539) or to GST-tagged KRAS-G12V (2-169, Reaction Biology, MSC-11-540).
GST-tagged KRAS-G12D (2-169) and anti-GST MAb Tb Cryptate Gold (CisBio 61GSTTLB) were diluted into assay buffer (20 mM HEPES, pH 7.3, 150 mM NaCl, 5 mM MgCl2, 0.05% BSA 0.0025% NP40, 1 mM DTT) to prepare a 2.5× donor solution. 5× compound was added to the protein mixture and incubated for 1 h at RT. 2.5× acceptor solution containing SOSIcat (564-1049, Reaction Biology MSC-11-502) and GTP-DY-647P1 were then added to the donor KRAS mixture such that the final concentration of the reaction contained 5 nM GST-tagged KRAS-G12D (2-169), 20 nM SOScat, and 150 nM GTP. The reaction was monitored using at RT with the Envision multimode plate reader (Ex/Em 337/665, […]) up to 90 minutes at 5 minute intervals. To monitor KRAS-G12V Sos-mediated nucleotide exchange, 80 nM SOS was added to reaction instead of 20 nM. All other components were the same as previously described. Data was blanked to reactions without SOS1 and % inhibition was calculated such that DMSO only=0% and blank=100%. Curve fitting was done using a 4 parameter fit. Reported IC50 values were extracted at 30 min and 90 min for the KRAS-G12D and KRAS-G12V assays, respectively.
Curve fitting was done using a 4 parameter fit. NEA KRAS G12D IC50 (uM) values of selected compounds are depicted in Table 2 with compounds having a value <0.01 uM as ++++; >0.01 uM to 0.1 uM as +++; >0.1 uM to 1 uM as ++; >1 uM to 20 uM as +; and >20 uM as NA.

KRAS G12D/RAF1 = molecular target: T2, KRAS G12D/RAF1 (Homo sapiens, UniProt P01116, G12D); assay: Protein-protein interaction (PPI) HTRF assay KRAS G12D/RAF1; format: binding; conditions: Table 4
T2 construct: His6-MBP (N, cleaved yes); made in house; host or cells: E. coli
Experimental: Biotinylated KRAS wt and KRAS G12DNV proteins were expressed and purified in conditions similar to those previously reported (Tran, et al., 2021) (Zhang, et al., 2020). Briefly, KRAS (1-169) proteins were expressed in E. coli at 18° C. with an upstream TEV cleavage site (ENLFYQS (SEQ ID NO: 6)) followed an Avi tag sequence ([…] (SEQ ID NO: 7)). KRAS expression constructs contained both a His6 (SEQ ID NO: 8) and maltose-binding protein (MBP) tags at the N-terminus for Ni-NTA column purification prior to overnight TEV cleavage and MBP column purification. The avi-tagged NRAS expression construct contained both a His6 tag (SEQ ID NO: 8) and SUMO cleavage sige at the N-terminus for Ni-NTA column purification followed by His-ULPi digestion overnight. All avi-tagged RAS proteins were dialyzed into buffer containing ATP, biotin, and BirA followed by purification over a second Ni-NTA column and then run over a size exclusion HiLoad™ 26/600 Superdex™ column in 20 mM HEPES, pH 7.5, 300 mM NaCl, 5 mM MgCl2, and 1 mM TCEP. Fractions containing the protein of interest were pooled, concentrated, and confirmed by intact mass spectrometry. To prepare ‘GTP’ loaded KRAS and NRAS, biotinylated KRAS or NRAS was nucleotide exchanged from GDP-bound protein to GppNHp-bound (Jena Biosciences, NU-401-50) protein in the presence of alkaline phosphatase and excess GppNHp as previously described and the resulting nucleotide content was confirmed by HPLC reverse phase analytical chromatography (Donohue, et al., 2019) (Tran, et al., 2021).
His-tagged RAF1 (52-131) was similarly expressed in E. coli at 18° C. overnight with an upstream TEV cleavage site. His-tagged RAF1 expression construct contained both a His6 (SEQ ID NO: 8) and MBP tags at the N-terminus for Ni-NTA column purification followed by MBP-tagged TEV digestion overnight. RAF1 protein samples were further purified over a MBP column followed by a Ni-NTA column and a second MBP column. The fractions containing the protein of interest were pooled, concentrated, and further purified over a HiLoad™ 16/600 Superdex™ 75 pg size exclusion column into 20 mM HEPES, pH8.0, 200 mM NaCl, 5 mM TCEP.
When RAS proteins are in the active GTP-bound conformation, they bind the effector protein RAF1 at the N-terminus Ras-binding domain (RBD, residues 52-131) (Tran, et al., 2021). Homogenous time resolved fluorescence (HTRF) was used to monitor the interaction between wt or mutant KRAS and RAF1 or wt NRAS and RAFT. Compounds were assayed in the presence of KRAS G12D/V and RAF1 versus wt KRAS to assess activity against mutant and w.t. KRAS. Similarly, compounds were then assayed in the presence of w.t. NRAS and RAF1 to assess RAS isoform selectivity. In all assay formats, His-tagged RAF1 protein was incubated with the HTRF donor, anti-6His (“6His” disclosed as SEQ ID NO: 8) Tb Cryptate gold (Cisbio 61DB10RDF), and biotinylated RAS proteins were incubated with the HTRF acceptor, streptavidin-d2 (CisBio 610SADLA). The intensity of the fluorescence signal emitted is proportional to binding between the two proteins. The donor solution was prepared by mixing 16 nM His-tagged RAF1 in protein dilution buffer with 1:100 anti-6His (“6His” disclosed as SEQ ID NO: 8) Tb cryptate in PPI-Terbium detection buffer. 16 nM biotinylated RAS protein was diluted into protein dilution buffer (50 mM Tris-HCl pH 7.5, 150 mM NaCl, 0.1 mM MgCl2, 1 mM TCEP, 0.005% Tween20) and mixed with 1:2000 Streptavidin-d2 diluted in PPI-Terbium detection buffer (CisBio 61DBTORDF). 50× compound in DMSO was mixed with 16 nM KRAS-acceptor solution and incubated for 30 minutes at room temperature. After compound pre-incubation with KRAS, the RAF1 donor solution was added to the KRAS-acceptor solution and incubated for 1 hour at room temperature. The fluorescence signal emitted was monitored at 665 nm and 615 nm using an Envision multimode plate reader. […]

T2 sequence (P01116 with tags, fused parts or gaps isoform P01116-2 G12D): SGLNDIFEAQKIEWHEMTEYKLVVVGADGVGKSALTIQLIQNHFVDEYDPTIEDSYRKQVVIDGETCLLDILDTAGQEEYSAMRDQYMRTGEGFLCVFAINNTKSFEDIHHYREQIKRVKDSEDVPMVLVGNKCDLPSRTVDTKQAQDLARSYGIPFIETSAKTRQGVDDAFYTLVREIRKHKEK
T1 sequence (P01116 2-169 isoform P01116-2 G12D): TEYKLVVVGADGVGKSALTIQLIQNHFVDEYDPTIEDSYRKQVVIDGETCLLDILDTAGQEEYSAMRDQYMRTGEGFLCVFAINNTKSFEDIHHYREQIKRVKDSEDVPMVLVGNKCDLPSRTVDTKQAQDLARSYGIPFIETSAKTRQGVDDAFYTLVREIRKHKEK

| Structure (SMILES) | IC50 [1] [nM] | IC50 (KRAS G12D/RAF1) [nM] |
| --- | --- | --- |
| N#Cc1c(N2C[C@H]3CC[C@@H](C2)N3)nc(OCc2n[nH]cc2Br)nc1N1CC2(CCc3sc(N)c(C#N)c32)C1 [Compound 102, 2-amino-1′-[2-[(4-bromo-1H-pyrazol-3-yl)methoxy]-5-cyano-6-[(1S,5R)-3,8-diazabicyclo[3.2.1]octan-3-yl]pyrimidin-4-yl]spiro[5,6-dihydrocyclopenta[b]thiophene-4,3′-azetidine]-3-carbonitrile] | < 10 | 10000 to 100000 |
| N#Cc1c(N2CCC=CCC2)nc(OC[C@@]23CCCN2C[C@H](F)C3)nc1N1CC2(CCc3sc(N)c(C#N)c32)C1 [Compound 31, 2-amino-1′-[5-cyano-2-[[(2R,8S)-2-fluoro-1,2,3,5,6,7-hexahydropyrrolizin-8-yl]methoxy]-6-(2,3,6,7-tetrahydroazepin-1-yl)pyrimidin-4-yl]spiro[5,6-dihydrocyclopenta[b]thiophene-4,3′-azetidine]-3-carbonitrile] | 10 to 100 | 1000 to 10000 |
| N#Cc1cnc(OCC2(CN3CCOCC3)CC2)nc1N1CC2(CCCc3sc(N)c(C#N)c32)C1 [Compound 63, 2-amino-1′-[5-cyano-2-[[1-(morpholinomethyl)cyclopropyl]methoxy]pyrimidin-4-yl]spiro[6,7-dihydro-5H-benzothiophene-4,3′-azetidine]-3-carbonitrile] | 10 to 100 | 10000 to 100000 |
| CN(C)C(=O)c1nn2c(c1Cl)CN(c1nc(OC[C@@]34CCCN3C[C@H](F)C4)nc(N3CC4(CCc5sc6[nH]cnc(=O)c6c54)C3)c1C#N)CCC2 [Compound 44, 3-chloro-5-[5-cyano-2-[[(2R,8S)-2-fluoro-1,2,3,5,6,7-hexahydropyrrolizin-8-yl]methoxy]-6-(12-oxospiro[7-thia-9,11-diazatricyclo[6.4.0.02,6]dodeca-1(8), 2(6), 10-triene-3,3′-azetidine]-1′-yl)pyrimidin-4-yl]-N,N-dimethyl-4,6,7,8-tetrahydropyrazolo[1,5-a][1,4]diazepine-2-carboxamide] | 1000 to 20000 | > 100000 |
| N#Cc1c(N2C[C@H]3CC[C@@H](C2)N3)nc(OCC2(CN3CCSCC3)CC2)nc1N1CC2(CCc3sc(N)c(C#N)c32)C1 [Compound 72, 2-amino-1′-[5-cyano-6-[(1R,5S)-3,8-diazabicyclo[3.2.1]octan-3-yl]-2-[[1-(thiomorpholinomethyl)cyclopropyl]methoxy]pyrimidin-4-yl]spiro[5,6-dihydrocyclopenta[b]thiophene-4,3′-azetidine]-3-carbonitrile] | < 10 | 100 to 1000 |
| N#Cc1c(N2C[C@H]3CC[C@@H](C2)N3)nc(OCC2(CN3CCOCC3)CC2(F)F)nc1N1CC2(CCc3sc(N)c(C#N)c32)C1 (stereo partly drawn) [Compound 68, 2-amino-1-[5-cyano-2-[[2,2-difluoro-1-(morpholinomethyl)cyclopropyl]methoxy]-6-[(1R,5S)-3,8-diazabicyclo[3.2.1]octan-3-yl]pyrimidin-4-yl]spiro[5,6-dihydrocyclopenta[b]thiophene-4,3′-azetidine]-3-carbonitrile] | < 10 | 1000 to 10000 |
| CO/N=C1/CCCN(c2nc(OC[C@@]34CCCN3C[C@H](F)C4)nc(N3CC4(CCc5sc(N)c(C#N)c54)C3)c2C#N)CC1 [Compound 59, 2-amino-1′-[5-cyano-2-[[(2R,8S)-2-fluoro-1,2,3,5,6,7-hexahydropyrrolizin-8-yl]methoxy]-6-[(4Z)-4-methoxyiminoazepan-1-yl]pyrimidin-4-yl]spiro[5,6-dihydrocyclopenta[b]thiophene-4,3′-azetidine]-3-carbonitrile] | 100 to 1000 | 10000 to 100000 |
| CN(C)C(=O)c1nn2c(c1Cl)CN(c1nc(OC[C@@]34CCCN3C[C@H](F)C4)nc(N3CC4(C3)C(=O)CCc3ccccc34)c1C#N)CCC2 [Compound 36, 3-chloro-5-[5-cyano-2-[[(2R,8S)-2-fluoro-1,2,3,5,6,7-hexahydropyrrolizin-8-yl]methoxy]-6-(2′-oxospiro[azetidine-3,1′-tetralin]-1-yl)pyrimidin-4-yl]-N,N-dimethyl-4,6,7,8-tetrahydropyrazolo[1,5-a][1,4]diazepine-2-carboxamide] | 1000 to 20000 | > 100000 |
| N#Cc1cnc(OCC2(CN3CCOCC3)CC2)nc1N1CC2(CCc3sc(N)c(C#N)c32)C1 [Compound 66, 2-amino-1′-[5-cyano-2-[[1-(morpholinomethyl)cyclopropyl]methoxy]pyrimidin-4-yl]spiro[5,6-dihydrocyclopenta[b]thiophene-4,3′-azetidine]-3-carbonitrile] | 100 to 1000 | 10000 to 100000 |
| N#Cc1c(N2C[C@H]3CC[C@@H](C2)N3)nc(OCC2(c3ccccc3)CC2)nc1N1CC2(CCc3sc(N)c(C#N)c32)C1 [Compound 84, 2-amino-1′-[5-cyano-6-[(1R,5S)-3,8-diazabicyclo[3.2.1]octan-3-yl]-2-[(1-phenylcyclopropyl)methoxy]pyrimidin-4-yl]spiro[5,6-dihydrocyclopenta[b]thiophene-4,3′-azetidine]-3-carbonitrile] | < 10 | 100 to 1000 |
